Source: patent US20250042847A1, “SUBSTITUTED PHENYLPROPIONIC ACID DERIVATIVE AND USE THEREOF” (TUOJIE BIOTECH (SHANGHAI) CO., LTD., priority 2021, published 2025)
pIC50: −log10 of the molar value. Counter-ions that a name gives are not always drawn.

Tests used:
[1] = biological target: Apo(a) and ApoB protein assembly (Homo sapiens (Human), UniProt P08519); experiment: Test for activity of compounds in inhibiting Lp(a) assembly (double antibody ELISA); type: biochemical; conditions: plasma from human transgenic hApo(a) and hApoB mice; 37° C., 2 h; ELISA absorbance at 450 nm
Experimental: The disclosure used a double antibody ELISA method to measure the efficiency of Apo(a) and ApoB protein assembly. The antibodies were ApoB-Capture antibody (Mabtech) and Apo(a)-Detector antibody (Abcam); the test samples were plasma from human transgenic hApo(a) and hApoB mice and were diluted 500-fold before use.
Experimental steps: Equal amounts of Apo(a) and ApoB serum were mixed with a serially diluted test compound (highest concentration at 100 nM, serially diluted 3-fold). The mixture was incubated in a 37° C. incubator for 2 h. The reaction was then terminated by adding 6-aminocaproic acid (EACA, purchased from Sigma) to a final concentration of 150 mM. The post-reaction solution was then added to an ELISA plate pre-coated with ApoB-Capture antibody, and the plate was incubated at room temperature for 2 h. Then the plate was washed 4 times with wash buffer; biotinylated Apo(a)-Detector antibody was added, and the plate was incubated at room temperature for 1 h. The plate was washed, and the chromogenic substrate 3,3′,5,5′-tetramethylbenzidine (TMB, purchased from Abcam) solution was added. After the plate was incubated at room temperature for 15 min, a reaction stop solution was added. Immediately after the solution was mixed well, the absorbance at 450 nm was measured using a microplate reader. Finally, data analysis and IC50 calculation were performed using GraphPad Prism 9 software.
The 0% inhibition rate for Apo(a) and ApoB protein assembly corresponds to the OD value where the compound concentration was 0 (1% DMSO); the 100% inhibition rate for Apo(a) and ApoB protein assembly corresponds to the OD value where only ApoB protein solution (a dilution of plasma from hApoB mice) was added.

[2] = In vivo pharmacokinetic experiment on beagles; conditions: intragastric, 10 mg/kg
Experimental: (§1) Beagles were used as test animals. After intragastric administration of the compound of the disclosure to beagles, plasma concentrations at different time points were determined by LC/MS/MS. The pharmacokinetic behavior of the compound of the disclosure in beagles was studied and its pharmacokinetic profile was evaluated.
Test Animals: 2 Healthy Male Beagles Aged 8-36 Months Per Group
Compound solution preparation: A certain amount of compound was weighed out and normal saline was added to form a 2 mg/mL colorless clear solution.
Administration: Beagles were fasted overnight and then intragastrically dosed. Reference 1 and compound 6 were both administered at a dose of 10 mg/kg.
(§2) Procedure: Beagles were intragastrically administered the compound of the disclosure. Blood samples of about 0.6 mL were collected from the peripheral vein at 0.25, 0.5, 1, 2, 4, 6, 8, and 24 h post-dose and placed into test tubes containing EDTA-K2. The blood samples were centrifuged at about 4° C. at 2000 rpm for 10 min to separate plasma, and the plasma was stored at −75° C.
(§3) Determination of the content of the test compound in beagle plasma at these different blood collection time points: Samples of 33 μL (30 μL of plasma and 3 μL of blank) of the beagle plasma collected at these time points post-dose were taken and added to 18 μL of a 6% perchloric acid solution. After 30 s of vortexing, the mixture was centrifuged at a temperature of 4° C. at 3900 rpm for 15 min, and 200 μL of alkalinized (the pH was adjusted to 10-11 with ammonia water) acetonitrile solution containing dexamethasone as an internal standard was then added to precipitate protein. After 30 s of vortexing, the mixture was centrifuged at 4° C. at 3900 rpm for 15 min. The supernatants of the plasma samples were taken and 3-fold diluted with water, and 8 μL of dilution was taken for LC/MS/MS analysis.
(§4) After plasma concentrations were determined by LC/MS/MS analysis, pharmacokinetic parameters were calculated using WinNonlin 6.1 software and a non-compartmental model method.

[3] = In vivo pharmacokinetic experiment on cynomolgus monkeys; conditions: intragastric; for AUC / half-life / Cmax: both sexes, cynomolgus monkey, plasma, po; for AUC: read-out: Area under curve AUC; for half-life: read-out: Half-life T1/2 (converted); for Cmax: read-out: Maximum plasma concentration Cmax
Experimental: as §1, with “Cynomolgus monkeys” for “Beagles”, “cynomolgus monkeys,” for “beagles,”, “cynomolgus monkeys” for “beagles”
Test Animals: 2 Healthy Cynomolgus Monkeys Aged 24-36 Months Per Group (One Male and One Female)
Compound solution preparation: Certain amounts of compound were weighed out and normal saline was added to form 10 mg/mL (reference 1) and 3 mg/mL (compound 6) colorless clear solutions.
Administration: Cynomolgus monkeys were fasted overnight and then intragastrically dosed. Reference 1 was administered at a dose of 50 mg/kg, and compound 6 was administered at a dose of 15 mg/kg.
as §2, with “Cynomolgus monkeys” for “Beagles”, “0.5” for “0.6”
as §3, with “cynomolgus monkey” for “beagle”
as §4

[4] = High-dose single-dose tolerance experiment on mice; type: in vivo, C57/6J mice; conditions: for body weight trend of the mice: 7 d after high-dose (1000 mg/kg) administration, conclusion in words; for Mouse body weight, Day 0 / Mouse body weight, Day 3 / Mouse body weight, Day 5 / Mouse body weight, Day 7: male C57/6J mice, single oral gavage 1000 mg/kg, mean
Experimental: C57/6J mice were used as test animals and administered a high dose of the compound of the disclosure by oral gavage. Clinical observations were carried out on the mice, and the safety of the compound of the disclosure was evaluated.
Experimental method: 8 male C57/6J mice were numbered 1-8 and weighed. The mice were fasted for 4 h before the experiment and weighed after the fast (0 h). Six mice with body weights closer to the average were selected and divided into 2 groups of 3.
The first group (G1) was administered reference 1, and the second group (G2) was administered the compound of the disclosure, Example 6. In both groups G1 and G2, the compounds were administrated by oral gavage at a dose of 1000 mg/kg, with normal saline as a vehicle. Clinical observations were carried out on the mice in the experimental group at 15 min, 30 min, 1 h, 2 h, 4 h, 6 h, and 24 h post-dose, and both groups were given food at 2 h post-dose.

Sequence of Apo(a) and ApoB protein assembly (P08519 20-2040): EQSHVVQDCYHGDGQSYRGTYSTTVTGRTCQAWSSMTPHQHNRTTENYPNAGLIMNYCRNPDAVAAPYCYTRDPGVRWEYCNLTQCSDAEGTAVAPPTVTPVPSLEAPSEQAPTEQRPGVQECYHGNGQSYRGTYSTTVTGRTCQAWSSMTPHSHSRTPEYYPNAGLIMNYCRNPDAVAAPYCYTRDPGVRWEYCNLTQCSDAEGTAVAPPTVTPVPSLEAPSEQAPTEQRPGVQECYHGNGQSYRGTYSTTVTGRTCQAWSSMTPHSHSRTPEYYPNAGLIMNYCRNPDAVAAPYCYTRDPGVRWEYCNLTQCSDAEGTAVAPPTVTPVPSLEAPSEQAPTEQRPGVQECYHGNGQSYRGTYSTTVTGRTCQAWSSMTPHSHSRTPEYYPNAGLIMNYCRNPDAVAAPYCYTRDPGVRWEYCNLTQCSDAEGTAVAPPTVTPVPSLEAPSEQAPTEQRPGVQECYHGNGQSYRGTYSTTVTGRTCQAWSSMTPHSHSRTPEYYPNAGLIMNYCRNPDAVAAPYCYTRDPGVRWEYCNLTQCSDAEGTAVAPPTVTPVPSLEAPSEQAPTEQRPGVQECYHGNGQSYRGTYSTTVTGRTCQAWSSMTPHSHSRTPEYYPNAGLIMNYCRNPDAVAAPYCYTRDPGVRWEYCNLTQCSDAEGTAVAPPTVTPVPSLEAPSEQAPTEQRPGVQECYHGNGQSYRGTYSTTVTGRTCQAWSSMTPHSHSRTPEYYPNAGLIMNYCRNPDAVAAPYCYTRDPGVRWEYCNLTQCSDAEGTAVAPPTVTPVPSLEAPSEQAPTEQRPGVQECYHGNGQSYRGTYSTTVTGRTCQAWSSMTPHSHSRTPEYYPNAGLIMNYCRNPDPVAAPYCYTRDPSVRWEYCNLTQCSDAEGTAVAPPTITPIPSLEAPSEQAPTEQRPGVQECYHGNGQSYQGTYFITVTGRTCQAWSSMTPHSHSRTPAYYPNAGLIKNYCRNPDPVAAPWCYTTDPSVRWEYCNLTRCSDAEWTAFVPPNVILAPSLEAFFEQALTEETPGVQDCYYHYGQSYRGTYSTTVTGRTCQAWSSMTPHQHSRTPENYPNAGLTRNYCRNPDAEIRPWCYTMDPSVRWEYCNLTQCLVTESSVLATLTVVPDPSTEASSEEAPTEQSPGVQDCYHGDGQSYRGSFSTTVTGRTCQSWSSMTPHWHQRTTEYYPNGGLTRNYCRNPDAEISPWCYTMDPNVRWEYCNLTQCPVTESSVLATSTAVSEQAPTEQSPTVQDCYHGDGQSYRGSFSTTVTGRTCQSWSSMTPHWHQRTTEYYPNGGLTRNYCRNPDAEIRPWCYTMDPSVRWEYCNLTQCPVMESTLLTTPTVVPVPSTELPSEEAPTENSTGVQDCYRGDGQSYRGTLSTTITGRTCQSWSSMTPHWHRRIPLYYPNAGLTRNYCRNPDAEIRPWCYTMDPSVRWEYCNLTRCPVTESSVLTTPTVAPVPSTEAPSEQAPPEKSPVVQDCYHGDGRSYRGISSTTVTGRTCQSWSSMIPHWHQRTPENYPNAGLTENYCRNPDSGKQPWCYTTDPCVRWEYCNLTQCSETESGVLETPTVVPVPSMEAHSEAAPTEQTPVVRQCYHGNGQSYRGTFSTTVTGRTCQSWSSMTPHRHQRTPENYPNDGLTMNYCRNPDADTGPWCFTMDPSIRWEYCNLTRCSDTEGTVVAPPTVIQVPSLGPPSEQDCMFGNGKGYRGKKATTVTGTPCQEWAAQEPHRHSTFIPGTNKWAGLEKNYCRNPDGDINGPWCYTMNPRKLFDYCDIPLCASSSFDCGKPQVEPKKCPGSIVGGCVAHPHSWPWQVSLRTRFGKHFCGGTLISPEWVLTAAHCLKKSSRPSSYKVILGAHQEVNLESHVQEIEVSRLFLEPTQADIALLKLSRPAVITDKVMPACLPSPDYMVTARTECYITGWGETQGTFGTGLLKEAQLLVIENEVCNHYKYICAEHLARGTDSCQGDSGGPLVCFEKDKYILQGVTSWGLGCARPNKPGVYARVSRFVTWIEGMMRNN

For O=C(O)[C@@H](Cc1cc(F)cc(CN(Cc2cc(F)cc(C[C@H](C(=O)O)[C@H]3CCNC3)c2)Cc2cc(F)cc(C[C@H](C(=O)O)[C@H]3CCNC3)c2)c1)[C@H]1CCNC1 [Compound 1, (2S)-3-(3-{[Bis({3-[(2S)-2-carboxy-2-[(3R)-pyrrolidin-3-yl]ethyl]-5-fluorophenyl}methyl)amino]methyl}-5-fluorophenyl)-2-[(3R)-pyrrolidin-3-yl]propanoic acid], the pIC50 [1] was 9.12.

With O=C(O)[C@@H](Cc1cccc(CN(Cc2cccc(C[C@H](C(=O)O)C3CCNCC3)c2)Cc2cccc(C[C@H](C(=O)O)C3CCNCC3)c2)c1)C1CCNCC1 [Compound 2, (2S)-3-(3-{[Bis({3-[(2S)-2-carboxy-2-(piperidin-4-yl)ethyl]phenyl}methyl)amino]methyl}phenyl)-2-(piperidin-4-yl)propanoic acid] the pIC50 [1] was 8.77.

Compound O=C(O)C(F)(Cc1cccc(CN(Cc2cccc(CC(F)(C(=O)O)[C@H]3CCNC3)c2)Cc2cccc(CC(F)(C(=O)O)[C@H]3CCNC3)c2)c1)[C@H]1CCNC1 (stereo partly drawn) [Compound 3, 3-[3-({Bis[(3-{2-carboxy-2-fluoro-2-[(3S)-pyrrolidin-3-yl]ethyl}phenyl)methyl]amino}methyl)phenyl]-2-fluoro-2-[(3S)-pyrrolidin-3-yl]propanoic acid] has a pIC50 [1] of 8.85.

Work on O=C(O)[C@@H](Cc1cccc(CN(CCN(Cc2cccc(C[C@H](C(=O)O)[C@H]3CCNC3)c2)Cc2cccc(C[C@H](C(=O)O)[C@H]3CCNC3)c2)Cc2cccc(C[C@H](C(=O)O)[C@H]3CCNC3)c2)c1)[C@H]1CCNC1 [Compound 4, (2S)-3-{3-[({2-[Bis({3-[(2S)-2-carboxy-2-[(3R)-pyrrolidin-3-yl]ethyl]phenyl}methyl)amino]ethyl}({3-[(2S)-2-carboxy-2-[(3R)-pyrrolidin-3-yl]ethyl]phenyl}methyl)amino)methyl]phenyl}-2-[(3R)-pyrrolidin-3-yl]propanoic acid] yielded a pIC50 [1] of 9.07.

Work on O=C(O)[C@@H](Cc1cccc(CNCCN(Cc2cccc(C[C@H](C(=O)O)[C@H]3CCNC3)c2)Cc2cccc(C[C@H](C(=O)O)[C@H]3CCNC3)c2)c1)[C@H]1CCNC1 [Compound 5, (2S)-3-(3-{[({3-[(2S)-2-Carboxy-2-[(3R)-pyrrolidin-3-yl]ethyl]phenyl}methyl)({2-[({3-[(2S)-2-carboxy-2-[(3R)-pyrrolidin-3-yl]ethyl]phenyl}methyl)amino]ethyl})amino]methyl}phenyl)-2-[(3R)-pyrrolidin-3-yl]propanoic acid] yielded a pIC50 [1] of 9.11.

With O=C(O)[C@@H](Cc1cccc(CN(CCOc2cccc(C[C@H](C(=O)O)[C@H]3CCNC3)c2)Cc2cccc(C[C@H](C(=O)O)[C@H]3CCNC3)c2)c1)[C@H]1CCNC1 [Compound 6, (2S)-3-(3-{[(2-{3-[(2S)-2-Carboxy-2-[(3R)-pyrrolidin-3-yl]ethyl]phenoxy}ethyl)({3-[(2S)-2-carboxy-2-[(3R)-pyrrolidin-3-yl]ethyl]phenyl}methyl)amino]methyl}phenyl)-2-[(3R)-pyrrolidin-3-yl]propanoic acid tetrahydrochloride] the pIC50 [1] was 9.39, the “oral absorption compared with reference 1” value ([2]; conclusion in words) was “better” and the AUC ([3]; 15 mg/kg) was 33100 ng·h/mL. It also gave a half-life ([3]; 15 mg/kg) of 996 min, a Cmax ([3]; 15 mg/kg) of 2370 ng/mL and a Unit-dose area under curve AUC/D ([3]; 15 mg/kg) of 2200 ng·h/mL per mg/kg. The “plasma exposure relative to reference 1” value ([3]; compound 6 15 mg/kg vs reference 1 50 mg/kg) was about 5 times, the “oral absorption compared with reference 1” value ([3]; conclusion in words) was “better” and the “body weight trend of the mice” value [4] was “remained unchanged or even increased”. For the same compound, the “Mouse body weight, Day 0” value [4] was 25.83 g, the “Mouse body weight, Day 3” value [4] was 26.93 g and the “Mouse body weight, Day 5” value [4] was 26.70 g. For the same compound, the “Mouse body weight, Day 7” value [4] was 26.67 g.

For O=C(O)[C@@H](Cc1cccc(CN(CCNc2cccc(C[C@H](C(=O)O)[C@H]3CCNC3)c2)Cc2cccc(C[C@H](C(=O)O)[C@H]3CCNC3)c2)c1)[C@H]1CCNC1 [Compound 7, (2S)-3-[3-({[2-({3-[(2S)-2-Carboxy-2-[(3R)-pyrrolidin-3-yl]ethyl]phenyl}amino)ethyl]({3-[(2S)-2-carboxy-2-[(3R)-pyrrolidin-3-yl]ethyl]phenyl}methyl)amino}methyl)phenyl]-2-[(3R)-pyrrolidin-3-yl]propanoic acid pentahydrochloride], the pIC50 [1] was 9.12.

Work on O=C(O)[C@@H](Cc1cccc(CN(Cc2cccc(C[C@H](C(=O)O)[C@H]3CCNC3)c2)Cc2cccc(C[C@H](C(=O)O)[C@H]3CCNC3)c2)c1)[C@H]1CCNC1 [Reference 1, reference compound] yielded an AUC ([2]; male, beagle, dog, plasma, po, read-out: Area under curve AUC) of 23000 ng·h/mL, a half-life ([2]; male, beagle, dog, plasma, po, read-out: Half-life T1/2 (converted)) of 1240 min and a Cmax ([2]; male, beagle, dog, plasma, po, read-out: Maximum plasma concentration Cmax) of 1630 ng/mL. It also gave an AUC ([3]; 50 mg/kg) of 22200 ng·h/mL, a half-life ([3]; 50 mg/kg) of 1060 min and a Cmax ([3]; 50 mg/kg) of 2190 ng/mL. For the same compound, the Unit-dose area under curve AUC/D ([3]; 50 mg/kg) was 443 ng·h/mL per mg/kg, the “body weight trend of the mice” value [4] was “significant downward trend” and the “Mouse body weight, Day 0” value [4] was 25.87 g. For the same compound, the “Mouse body weight, Day 3” value [4] was 25.70 g, the “Mouse body weight, Day 5” value [4] was 25.10 g and the “Mouse body weight, Day 7” value [4] was 24.53 g.
